Data reported in patent US8962627B2, “Oxime derivatives and their use as allosteric modulators of metabotropic glutamate receptors” (Prestwick Chemical, Inc., priority 2009, dated 2015).

Key:
mice [1] = assay: Haloperidol-induced catalepsy model (bar test) in the mouse; type: in vivo; details: 30 mg/kg i.p. consecutively with haloperidol 1 mg/kg i.p.; compared with vehicle; FIG. 1
Experimental: In-Vivo Evaluation in the Haldoperidol-Induced Catalepsy Model in the Mouse
This method, which detects anti-Parkinsonian activity, follows that described by Pires et al. (J Med and Biol Res 38 1867-1872, 2005; Shiozaki et al., Psychopharmacology 147, 90-95, 1999)
Catalepsy was assessed using the bar test in mice submitted to acute intra-peritoneal administration of Haloperidol 1 mg/kg. Mice (male Rj: NMRI mice, weighing 25-30 g at the beginning of the experiment) placed in group of 5 in Plexiglas cages, were injected with Haloperidol (1 mg/kg i.p.). […] The catalepsy response of one mouse was measured as the time the animal maintained an imposed posture with both forelimbs placed on a horizontal 0.9 cm diameter wire bar suspended 4 cm above a platform. The end point of catalepsy was considered to occur when both forelimbs were removed from the bar, the mouse climbed onto the bar or if the animal moved its head in an exploratory manner. A cut-off time of 180 seconds was applied. The degree of catalepsy was scored 45 min after Haloperidol administration and continued at 45 minutes intervals for a total of 270 minutes. Between determinations, the animals were returned to their home cages. The compound of Example 63, administered i.p. consecutively with haloperidol, was evaluated at 30 mg/kg and compared with a vehicle control group. […]

[2] = target: T1, human mGluR4 transiently over-expressed in HEK-293 cells (Homo sapiens, UniProt Q14833); assay: Human mGluR4 positive allosteric modulator evaluation using Ca++ functional assay; type: cell-based; details: HEK-293 cells co-transfected with hmGluR4 and chimeric G protein; EC10 glutamate; intracellular calcium (Fluo4AM); read-out: mean EC50 of agonist/positive allosteric modulator activity on mGluR4
T1 construct: expressed in transfected cells; host or cells: HEK-293 cells, transient co-transfection by electroporation
T1 sequence (Q14833 33-912): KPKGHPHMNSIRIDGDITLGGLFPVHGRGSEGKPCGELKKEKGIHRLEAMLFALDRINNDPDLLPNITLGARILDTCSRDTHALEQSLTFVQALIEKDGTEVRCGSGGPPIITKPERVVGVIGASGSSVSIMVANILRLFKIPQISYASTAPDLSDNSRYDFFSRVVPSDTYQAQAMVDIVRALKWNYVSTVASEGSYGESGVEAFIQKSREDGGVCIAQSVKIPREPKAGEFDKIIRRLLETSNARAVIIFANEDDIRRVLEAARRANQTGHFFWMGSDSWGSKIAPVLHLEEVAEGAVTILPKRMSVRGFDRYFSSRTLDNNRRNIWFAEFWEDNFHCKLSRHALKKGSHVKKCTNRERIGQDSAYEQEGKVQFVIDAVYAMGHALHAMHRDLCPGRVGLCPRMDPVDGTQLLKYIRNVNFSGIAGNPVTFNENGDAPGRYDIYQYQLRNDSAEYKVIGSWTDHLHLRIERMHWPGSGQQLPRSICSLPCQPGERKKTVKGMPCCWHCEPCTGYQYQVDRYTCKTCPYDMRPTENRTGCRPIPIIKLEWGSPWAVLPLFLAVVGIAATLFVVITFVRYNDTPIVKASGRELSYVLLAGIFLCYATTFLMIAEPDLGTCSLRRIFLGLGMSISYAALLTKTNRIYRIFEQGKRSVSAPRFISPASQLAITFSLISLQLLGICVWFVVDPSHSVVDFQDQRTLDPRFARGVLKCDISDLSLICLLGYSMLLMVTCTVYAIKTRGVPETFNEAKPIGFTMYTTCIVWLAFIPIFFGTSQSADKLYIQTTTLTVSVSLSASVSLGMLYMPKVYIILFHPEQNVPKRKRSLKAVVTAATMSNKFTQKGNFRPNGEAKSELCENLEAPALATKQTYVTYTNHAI
How it was run: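 HEK-293 cells transiently co-transfected with hmGluR4 and a chimeric G protein, loaded with Fluo4AM; Ca2+ fluorescence read 485/525 nm. Compound alone read 60 s, then EC10 glutamate added and read 60 s more. EC50 fitted from 6–9 concentrations, duplicate, two independent runs.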

mice [3] = assay: Marble burying test in the mouse; type: in vivo; details: p<0.001
Source text: In-Vivo Evaluation in the Marble Burying Test in the Mouse
The method, which detects anxiolytic/tranquilizing activity, follows that described by Broekkamp at al. (Eur. J. Pharmacol., 126, 223-229, 1986). Mice exposed to novel object (marbles) will bury them in the sawdust floor covering. Anxiolytics decrease the number of marbles buried at non-sedative doses.
Mice were individually placed in transparent plastic cages (33×21×18 cm) with 5 cm of sawdust on the floor and 25 marbles grouped in the centre of the cage. The cage was covered with an inverted plastic cage. Each test cage, together with the marbles, was impregnated with mouse odor before-hand by leaving 10 mice in the cage for 15 minutes. These mice then played no further role in the experiment. The number of marbles covered by sawdust (⅔ or more) was counted at the end of a 30 minute test. 12 mice were studied per group. The test was performed blind (apart from positive control). The compound of Example 85 was evaluated at 2 doses (100 and 300 mg/kg), administered p.o. 30 minutes before the test, and compared with vehicle control groups. Clobazam (8 mg/kg i.p.), administered 30 minutes before the test, was used as reference substance and was compared with the vehicle control group. Data were analyzed by comparing treated groups with control group using unpaired Student's t tests.

| SMILES | EC50 [2] [nM] | melting point | anticataleptic activity (mean time of latency spent on the bar) (mice [1]) | decrease of the number of marbles covered by sawdust, as compared with vehicle controls (mice [3]; 100 mg/kg p.o. 30 minutes before the test) [%] | decrease of the number of marbles covered by sawdust, as compared with vehicle controls (mice [3]; 300 mg/kg p.o. 30 minutes before the test) [%] |
| --- | --- | --- | --- | --- | --- |
| Cl.ON=c1cc(-c2cc3cccn3cn2)oc2ccc(OCCc3ccncc3)cc12 [Example 136, 6-(2-Pyridin-4-yl-ethoxy)-2-pyrrolo[1,2-c]pyrimidin-3-yl-chromen-4-one oxime, hydrochloride] | < 5000 | > 270 °C (dec.) | – | – | – |
| Cl.ON=c1cc(-c2cc3cccn3cn2)oc2ccc(CNCc3ccc(F)cc3)cc12 [Example 144, 6-[(4-Fluoro-benzylamino)-methyl]-2-pyrrolo[1,2-c]pyrimidin-3-yl-chromen-4-one oxime hydrochloride] | < 5000 | > 210 °C (dec.) | – | – | – |
| ON=c1cc(-c2cc3cccn3cn2)oc2ccc(OCCOc3cccnc3)cc12 [Example 148, 6-[2-(Pyridin-3-yloxy)-ethoxy]-2-pyrrolo[1,2-c]pyrimidin-3-yl-chromen-4-one oxime] | < 1000 | 170 to 175 °C | – | – | – |
| ON=c1cc(-c2cc3cccn3cn2)oc2ccc(OCCCOc3cccnc3)cc12 [Example 149, 6-[3-(Pyridin-3-yloxy)-propoxy]-2-pyrrolo[1,2-c]pyrimidin-3-yl-chromen-4-one oxime] | < 1000 | 202 to 205 °C | – | – | – |
| CN(C(=O)COc1ccc2oc(-c3cc4cccn4cn3)cc(=NO)c2c1)c1ccc(F)cc1 [Example 151, N-(4-Fluoro-phenyl)-2-{4-hydroxyimino-2-pyrrolo[1,2-c]pyrimidin-3-yl-4H-chromen-6-yloxy}-N-methyl-acetamide] | < 5000 | 268 to 272 °C | – | – | – |
| ON=c1cc(-c2cc3cccn3cn2)oc2cccc(C(F)(F)F)c12 [Example 153, 2-Pyrrolo[1,2-c]pyrimidin-3-yl-5-trifluoromethyl-chromen-4-one oxime] | < 5000 | 255 to 257 °C | – | – | – |
| Cl.ON=c1cc(-c2cc3cccn3cn2)oc2cccc(OCCN3CCOCC3)c12 [Example 156, 5-(2-Morpholin-4-yl-ethoxy)-2-pyrrolo[1,2-c]pyrimidin-3-yl-chromen-4-one oxime, hydrochloride] | < 1000 | 200 to 205 °C | – | – | – |
| Cl.ON=c1cc(-c2cc3ccsc3cn2)oc2ccc(OCCN3CCOCC3)cc12 [Example 158, 6-(2-Morpholin-4-yl-ethoxy)-2-thieno[2,3-c]pyridin-5-yl-chromen-4-one oxime, hydrochloride] | < 1000 | 258 to 260 °C | – | – | – |
| Cl.ON=c1cc(-c2cc3cccn3cn2)oc2ccc(OCCCc3ccncc3)cc12 [Example 159, 6-(3-Pyridin-4-yl-propoxy)-2-pyrrolo[1,2-c]pyrimidin-3-yl-chromen-4-one oxime, hydrochloride] | < 1000 | 210 to 215 °C | – | – | – |
| ON=c1cc(-c2cc3cccn3cn2)oc2ccc(OCCOc3ccccc3)cc12 [Example 160, 6-(2-Phenoxy-ethoxy)-2-pyrrolo[1,2-c]pyrimidin-3-yl-chromen-4-one oxime] | < 1000 | 210 to 215 °C | – | – | – |

More lines, main results first:

| EC50 [2] [nM] | melting point | SMILES | anticataleptic activity (mean time of latency spent on the bar) (mice [1]) | decrease of the number of marbles covered by sawdust, as compared with vehicle controls (mice [3]; 100 mg/kg p.o. 30 minutes before the test) [%] | decrease of the number of marbles covered by sawdust, as compared with vehicle controls (mice [3]; 300 mg/kg p.o. 30 minutes before the test) [%] |
| --- | --- | --- | --- | --- | --- |
| < 1000 | – | ON=c1cc(-c2cc3cccn3cn2)oc2ccccc12 [Example 63, 2-Pyrrolo[1,2-c]pyrimidin-3-yl-chromen-4-one oxime] | significant anticataleptic activity | – | – |
| < 1000 | – | Cl.ON=c1cc(-c2cc3cccn3cn2)oc2ccc(OCCN3CCOCC3)cc12 [Example 85, 6-(3-Morpholin-4-yl-ethoxy)-2-pyrrolo[1,2-c]pyrimidin-3-yl-chromen-4-one oxime hydrochloride] | – | −70 | −83 |
| < 1000 | 252 to 254 °C | Cl.ON=c1cc(-c2cc3sccc3cn2)oc2ccc(OCCCc3cccnc3)cc12 [Example 135, 6-(3-Pyridin-3-yl-propoxy)-2-thieno[3,2-c]pyridin-6-yl-chromen-4-one oxime, hydrochloride] | – | – | – |
| < 1000 | 214 to 215 °C | ON=c1cc(-c2cc3cccn3cn2)oc2ccc(OCCc3ccc(C(F)(F)F)cc3)cc12 [Example 137, 2-Pyrrolo[1,2-c]pyrimidin-3-yl-6-[2-(4-trifluoromethyl-phenyl)-ethoxy]-chromen-4-one, oxime] | – | – | – |
| < 1000 | 205 to 207 °C | ON=c1cc(-c2cc3cccn3cn2)oc2ccc(OCCc3cccc(F)c3)cc12 [Example 138, 6-[2-(3-Fluoro-phenyl)-ethoxy]-2-pyrrolo[1,2-c]pyrimidin-3-yl-chromen-4-one, oxime] | – | – | – |
| < 1000 | 240 to 243 °C | COc1cccc2oc(-c3cc4cccn4cn3)cc(=NO)c12 [Example 139, 5-Methoxy-2-pyrrolo[1,2-c]pyrimidin-3-yl-chromen-4-one oxime] | – | – | – |
| < 1000 | 247 to 249 °C | ON=c1cc(-c2cc3cccn3cn2)oc2ccc(OCCc3ccc(Cl)cc3)cc12 [Example 140, 6-[2-(4-Chloro-phenyl)-ethoxy]-2-pyrrolo[1,2-c]pyrimidin-3-yl-chromen-4-one oxime] | – | – | – |
| < 1000 | 217 to 218 °C | ON=c1cc(-c2cc3cccn3cn2)oc2ccc(OCCc3cccc(C(F)(F)F)c3)cc12 [Example 141, 2-Pyrrolo[1,2-c]pyrimidin-3-yl-6-[2-(3-trifluoromethyl-phenyl)-ethoxy]-chromen-4-one oxime] | – | – | – |
| < 1000 | 210 °C | ON=c1cc(-c2cc3cccn3cn2)oc2ccc(OCCc3ccccc3)cc12 [Example 146, 6-Phenethyloxy-2-pyrrolo[1,2-c]pyrimidin-3-yl-chromen-4-one oxime] | – | – | – |
| < 1000 | 198 to 200 °C | ON=c1cc(-c2cc3cccn3cn2)oc2ccc(OCCOc3ccncc3)cc12 [Example 147, 6-[2-(Pyridin-4-yloxy)-ethoxy]-2-pyrrolo[1,2-c]pyrimidin-3-yl-chromen-4-one oxime] | – | – | – |
